Assay results reported in PubChem BioAssay (NCI).
“And” between values parts separate entries of the source, which are not always exact repeats. Equal entries are not always repeated.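 Assay format: 96-well plates, 48-hour exposure. GI50 marks 50% less growth. TGI: concentration producing complete growth inhibition.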

How the values were obtained:
Assay in all cases: NCI tumour cell line growth inhibition, 48 h
[1] = system: 786-0 renal
[2] = system: DU-145 prostate
[3] = system: HS 578T breast
[4] = system: MDA-MB-231 breast
[5] = system: MDA-MB-435
[6] = system: PC-3 prostate
[7] = system: SR leukemia
[8] = system: T-47D breast
[9] = system: HOP-18 NSCLC
[10] = system: M19-MEL melanoma
[11] = system: P388 leukemia
[12] = system: SN12K1 renal
[13] = system: XF 498 CNS
[14] = system: LXFL 529 NSCLC
[15] = system: BT-549 breast
[16] = system: MDA-N

For `CC(=O)Nc1ccc(-c2nc3ccccc3s2)cc1`, the TGI [1] was 64.8 µM, the TGI [2] was 40.1 µM and the TGI [3] was > 100 µM. For the same compound, the TGI [4] was 96.1 µM, the TGI [5] was > 100 µM and the TGI [6] was > 100 µM. The TGI [7] was > 100 µM and the TGI [8] was > 100 µM.
In the case of `COc1cc(/C=C/C(=O)O)ccc1C(=O)OCc1ccccc1`, the TGI [9] was > 100 µM, the TGI [10] was > 100 µM and the TGI [11] was > 100 µM. For the same compound, the TGI [12] was > 100 µM and the TGI [13] was > 100 µM.
In the case of `COC(=O)CN(C)P(=O)(N1CC1)N1CC1`, the TGI [14] was > 100 µM.
`Cc1cccc(C(C)C)c1NC(=O)CC1Sc2ccccc2NC1=O` (stereo not drawn) was tested, and the TGI [9] was > 100 µM, the TGI [14] was > 100 µM and the TGI [7] was > 100 µM. For the same compound, the TGI [13] was > 100 µM.
For `CN1CCN(CN2C(=O)C3C4C=CC(C3C2=O)C2C(=O)N(CN3CCN(C)CC3)C(=O)C42)CC1` (stereo not drawn), the TGI [1] was 97.7 µM, the TGI [15] was > 100 µM and the TGI [2] was > 31.6 µM. The TGI [3] was > 100 µM, the TGI [4] was > 100 µM and the TGI [5] was > 100 µM. The TGI [16] was > 100 µM, the TGI [6] was > 100 µM and the TGI [7] was > 100 µM. For the same compound, the TGI [8] was > 100 µM.
With `CCCC(O)C(NC(=O)CCl)C(=O)O` (stereo not drawn) the TGI [9] was > 100 µM, the TGI [10] was > 100 µM and the TGI [11] was > 100 µM. The TGI [12] was > 100 µM and the TGI [13] was > 100 µM.
`COc1cc2c3c(c4cc(OC)c(OC)cc4c2cc1OC)C(=O)C1CCC(=O)N1C3` (stereo not drawn) was tested, and the TGI [15] was > 100 µM, the TGI [2] was > 100 µM and the TGI [3] was > 100 µM. The TGI [4] was > 100 µM, the TGI [5] was > 100 µM and the TGI [6] was > 100 µM. For the same compound, the TGI [8] was > 100 µM.
With `O=C(CC(=O)c1ccccc1)CC(O)(c1ccccc1)c1ccccc1` the TGI [14] was 17 µM, the TGI [10] was 13.9 µM and the TGI [7] was > 100 µM.
In the case of `CC12CCC3C(CCC4=CC(O)CCC43C=O)C1(O)CCC2c1ccc(=O)oc1` (stereo not drawn), the TGI [9] was 0.0461 µM, the GI50 [10] was 0.05 µM and the TGI [10] was 0.072 µM and 0.061 µM. The GI50 [11] was 80.6 µM, the GI50 [12] was 0.00753 µM and the TGI [12] was 0.0286 µM and 0.0531 µM.
`CC(=O)OC1(C#N)CC2OC1C1C2N=NN1C(=O)OC(C)(C)C` (stereo not drawn) was tested, and the TGI [9] was > 100 µM, the TGI [14] was > 100 µM and the TGI [10] was > 100 µM. The TGI [7] was > 100 µM.
